Results published in ChEMBL document CHEMBL1153259, “Spiroepoxycyclohexadienone dimers: cytotoxic bisalkylating agents” (Bioorg Med Chem Lett, 1993).

How the values were obtained:
Format in all cases: functional, cell-based
HT-29 = test: Compound was tested for cytotoxicity on HT-29 colon cancer cell line using a proliferation assay (MTT reduction); conditions: Homo sapiens
A549 [1] = test: Compound was tested for cytotoxicity on A549 lung adenocarcinoma cell line using a proliferation assay (MTT reduction); conditions: Homo sapiens
L1210 = test: Compound was tested for cytotoxicity on L1210 leukemia cell line using a proliferation assay (MTT reduction); conditions: Mus musculus
A549 [2] = test: Compound was tested for cytotoxicity on A549 lung adenocarcinoma cell line using a proliferation assay (MTT reduction).; conditions: Homo sapiens

SMILES | IC50 (HT-29) [µM] | IC50 (A549 [1]) [µM] | IC50 (L1210) [µM] | IC50 (A549 [2]) [µM]
COc1cccc2c1C(=O)c1c(O)c3c(c(O)c1C2=O)C[C@@](O)(C(=O)CO)C[C@@H]3O[C@H]1C[C@H](N)[C@H](O)[C@H](C)O1 [DOXORUBICIN] | 0.12 | 0.1 | 0.04 | –
COC1=CC2C(C3C=CC2(OC)C(=O)[C@]32CO2)[C@@]2(CO2)C1=O (stereo partly specified) | 3.6 | 1.2 | 1 | –
O=C1C2C=CC(C3C2C2C/C(=N\Cc4ccccc4)[C@]3(O)CN2Cc2ccccc2)[C@@]12CO2 (stereo partly specified) | 27 | > 28 | > 28 | –
O[C@@H]1CCC2C3C=CC(C2[C@@]12CO2)[C@@]1(CO1)[C@@H]3O (stereo partly specified) | 6 | 18 | 19.5 | –
O[C@@H]1C=CC2C3C=CC(C2[C@@]12CO2)[C@@]1(CO1)[C@@H]3O (stereo partly specified) | 17 | 31.5 | 22.5 | –
COC1=CC2C3C=CC(C2[C@@]2(CO2)C1=O)[C@@]1(CO1)C3=O (stereo partly specified) | 5.8 | 17.5 | > 36 | –
O=C1C2C=CC(C3C2C=CC(=O)[C@]32CO2)[C@@]12CO2 (stereo partly specified) | 0.3 | – | 0.18 | 0.75
